Reference: BindingDB's records for doi:10.1016/j.bmcl.2012.03.090 (Spanish National Cancer Research Centre (Cnio), 2012)

Molecular target: Phosphatidylinositol 3-kinase regulatory subunit alpha/4,5-bisphosphate 3-kinase catalytic subunit alpha isoform (Homo sapiens, UniProt P27986+P42336)
Assay: Inhibition of human PI3Kalpha (p110alpha/p85alpha) by ADP accumulation based HTRF assay

Phosphatidylinositol 3-kinase regulatory subunit alpha/4,5-bisphosphate 3-kinase catalytic subunit alpha isoform, sequence (P27986 whole entry, canonical isoform): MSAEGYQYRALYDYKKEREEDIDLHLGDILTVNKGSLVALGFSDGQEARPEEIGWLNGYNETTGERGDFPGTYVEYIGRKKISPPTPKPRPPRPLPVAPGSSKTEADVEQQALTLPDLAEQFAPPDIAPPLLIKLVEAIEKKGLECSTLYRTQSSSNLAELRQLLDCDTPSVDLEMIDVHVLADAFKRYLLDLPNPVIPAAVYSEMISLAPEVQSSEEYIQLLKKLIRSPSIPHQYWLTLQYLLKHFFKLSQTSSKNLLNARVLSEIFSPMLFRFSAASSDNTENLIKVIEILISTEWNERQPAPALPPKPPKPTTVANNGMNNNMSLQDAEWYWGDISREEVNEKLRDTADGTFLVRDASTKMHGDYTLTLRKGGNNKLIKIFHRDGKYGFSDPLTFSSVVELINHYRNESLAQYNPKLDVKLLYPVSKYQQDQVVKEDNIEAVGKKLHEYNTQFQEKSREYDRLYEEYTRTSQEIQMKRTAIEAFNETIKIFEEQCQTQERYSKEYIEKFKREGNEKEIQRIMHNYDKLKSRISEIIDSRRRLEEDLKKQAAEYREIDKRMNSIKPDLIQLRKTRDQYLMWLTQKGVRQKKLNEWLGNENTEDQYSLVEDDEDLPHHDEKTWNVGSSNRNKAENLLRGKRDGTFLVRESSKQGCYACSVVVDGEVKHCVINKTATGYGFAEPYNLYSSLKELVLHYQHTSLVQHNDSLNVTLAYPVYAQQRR
Phosphatidylinositol 3-kinase regulatory subunit alpha/4,5-bisphosphate 3-kinase catalytic subunit alpha isoform, sequence (P42336 whole entry, canonical isoform): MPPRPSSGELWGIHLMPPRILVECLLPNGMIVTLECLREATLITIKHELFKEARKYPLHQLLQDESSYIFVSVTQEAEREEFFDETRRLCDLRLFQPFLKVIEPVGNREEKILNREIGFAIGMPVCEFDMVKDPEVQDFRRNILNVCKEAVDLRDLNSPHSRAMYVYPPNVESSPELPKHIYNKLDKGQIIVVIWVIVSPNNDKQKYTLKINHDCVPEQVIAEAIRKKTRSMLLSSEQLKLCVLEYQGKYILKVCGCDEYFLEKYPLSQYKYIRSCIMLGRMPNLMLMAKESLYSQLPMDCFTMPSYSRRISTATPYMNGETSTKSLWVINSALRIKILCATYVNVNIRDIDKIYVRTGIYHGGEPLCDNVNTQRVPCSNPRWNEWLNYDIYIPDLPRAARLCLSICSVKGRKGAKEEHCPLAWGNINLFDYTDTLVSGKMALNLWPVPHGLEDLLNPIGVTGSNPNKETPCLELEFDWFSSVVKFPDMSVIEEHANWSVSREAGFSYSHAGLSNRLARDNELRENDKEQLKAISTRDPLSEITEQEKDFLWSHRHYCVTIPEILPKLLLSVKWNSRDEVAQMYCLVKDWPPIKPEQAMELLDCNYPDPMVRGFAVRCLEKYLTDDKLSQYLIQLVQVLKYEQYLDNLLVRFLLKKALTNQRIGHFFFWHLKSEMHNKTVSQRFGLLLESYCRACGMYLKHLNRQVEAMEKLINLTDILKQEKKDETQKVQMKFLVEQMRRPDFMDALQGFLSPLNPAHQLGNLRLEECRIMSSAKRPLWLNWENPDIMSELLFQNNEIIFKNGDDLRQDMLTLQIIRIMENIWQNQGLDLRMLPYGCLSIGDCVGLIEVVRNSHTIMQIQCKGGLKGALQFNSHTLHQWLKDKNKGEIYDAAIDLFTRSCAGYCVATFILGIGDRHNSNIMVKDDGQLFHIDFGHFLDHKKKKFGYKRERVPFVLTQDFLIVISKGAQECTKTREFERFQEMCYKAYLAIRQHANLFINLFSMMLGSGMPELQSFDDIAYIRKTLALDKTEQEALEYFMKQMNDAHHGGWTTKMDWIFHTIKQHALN

Compound	IC50
CS(=O)(=O)N1CCN(Cc2cn3cc(-c4ccc(N)nc4)nc(N4CCOCC4)c3n2)CC1	169 nM
COc1ccc(-c2cn3cc(CN4CCN(S(C)(=O)=O)CC4)nc3c(N3CCOCC3)n2)cn1	4550 nM
Cc1ncc(-c2cn3cc(CN4CCN(S(C)(=O)=O)CC4)nc3c(N3CCOCC3)n2)cn1	21.1 nM
CS(=O)(=O)N1CCC2(CC1)CN(Cc1cn3cc(-c4cnc(N)nc4)nc(N4CCOCC4)c3n1)C2	110 nM

Further compounds by falling IC50, results first:

IC50	Compound
776 nM	Cc1ccc(-c2cn3cc(CN4CCN(S(C)(=O)=O)CC4)nc3c(N3CCOCC3)n2)cn1
468 nM	Cc1ccncc1-c1cn2cc(CN3CCN(S(C)(=O)=O)CC3)nc2c(N2CCOCC2)n1
210 nM	CC(=O)Nc1ccc(-c2cn3cc(CN4CCN(S(C)(=O)=O)CC4)nc3c(N3CCOCC3)n2)cn1
113 nM	CS(=O)(=O)N1CCN(Cc2cn3cc(-c4cnc5[nH]ccc5c4)nc(N4CCOCC4)c3n2)CC1
34 nM	CN(C)CC(=O)N1CCN(Cc2cn3cc(-c4cnc(N)nc4)nc(N4CCOCC4)c3n2)CC1
32.3 nM	Cc1nc(N)ncc1-c1cn2cc(CN3CCN(S(C)(=O)=O)CC3)nc2c(N2CCOCC2)n1
